Read-outs that look alike come from different tables or passages of the source.
Columns and labels:
[1] = tested on: prostate adenocarcinoma line LNCap cells;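 further: luminescence signal read after adding CellTiter-Glo reagent, with cells exposed to compounds for 72 h at 37 °C under 5% CO2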
Description: (§1) 7) Using complete cell medium, adjust the volume of the suspension to achieve a cell concentration.
(§2) Solid compound of cis-platinum was solubilized in PBS to a stock solution of 3.333 mM.
(§3) Final volume is 100 µL per well at this point.
(§4) 1) Incubate the plates at room temperature and away from light for 30 minutes.
(§5) 3) Add 100 µL /well of CellTiter-Glo® Reagent in each well. Avoid light.
(§6) 4) Mix contents for 2 minutes on an orbital shaker.
(§7) 5) Incubate plate at room temperature for 10 minutes to stabilize the luminescent signal.

[2] = tested on: breast cancer line T47D cells; assay: CTG (CellTiter-Glo) cell viability assay, 6×6 combo matrix, 72 h, T47D; settings: Homo sapiens;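 further: luminescence read-out after 72 h at 37 °C under 5% CO2, with medium-only wells as blanks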
Description: as §1, §2, §3, §4, §5, §6, §7

[3] = tested on: breast cancer line T47D cells;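 further: luminescence read-out after 72 h at 37 °C under 5% CO2, with medium-only wells as blanks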
Description: as §1, §2, §3, §4, §5, §6, §7

[4] = tested on: glioblastoma line U87MG cells; assay: CTG (CellTiter-Glo) cell viability assay, 6×6 combo matrix, 72 h, U87MG; settings: Homo sapiens, U-87 MG;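 further: U87MG cells seeded at 2000 per well, exposed 72 h, viability read by CellTiter-Glo luminescence, inhibition expressed relative to vehicle-treated wells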
[5] = tested on: kidney cancer line 786-O cells;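 further: luminescence read-out after adding CellTiter-Glo reagent, with cells incubated at 37 °C under 5% CO2 during compound exposure, part of a ten cell line synergy study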
Description: as §1, §2, §3, §4, §5, §6, §7

[6] = tested on: Liver cancer line SK-HEP-1 cells;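 further: luminescent signal read after 72 h compound exposure at 37 °C under 5% CO2, with medium-only wells serving as blank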
Description: as §1, §2, §3, §4, §5, §6, §7

[7] = tested on: Liver cancer line SK-HEP-1 cells; assay: CTG (CellTiter-Glo) cell viability assay, 6×6 combo matrix, 72 h, SK-Hep-1; settings: Homo sapiens;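 further: luminescent signal read after 72 h compound exposure at 37 °C under 5% CO2, with medium-only wells serving as blank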
Description: as §1, §2, §3, §4, §5, §6, §7

[8] = tested on: lung adenocarcinoma line A549 cells; assay: CTG (CellTiter-Glo) cell viability assay, 6×6 combo matrix, 72 h, A549; settings: Homo sapiens, A549, read-out: Relatively Cell inhibition of vehicle control(%);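 further: luminescent ATP readout with CellTiter-Glo after compound exposure, used to assess growth inhibition and combination synergy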
Description: as §1, §2, §3, §4, §5, §6, §7

[9] = tested on: kidney cancer line 786-O cells; assay: CTG (CellTiter-Glo) cell viability assay, 6×6 combo matrix, 72 h, 786-O; settings: Homo sapiens, 786-0, read-out: Relatively Cell inhibition of vehicle control;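 further: luminescence read-out after adding CellTiter-Glo reagent, with cells incubated at 37 °C under 5% CO2 during compound exposure, part of a ten cell line synergy study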
Description: as §1, §2, §3, §4, §5, §6, §7

[10] = tested on: prostate adenocarcinoma line LNCap cells; assay: CTG (CellTiter-Glo) cell viability assay, 6×6 combo matrix, 72 h, LNCaP; settings: Homo sapiens, LNCaP;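 further: luminescence signal read after adding CellTiter-Glo reagent, with cells exposed to compounds for 72 h at 37 °C under 5% CO2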
Description: as §1, §2, §3, §4, §5, §6, §7

[11] = tested on: pancreatic cancer line Capan-1 cells; assay: CTG (CellTiter-Glo) cell viability assay, 6×6 combo matrix, 72 h, Capan-1; format: cell-based; settings: Homo sapiens, CAPAN-1; read-out: Relatively Cell inhibition of vehicle control
Description: To measure the cell inhibition effect of compounds and synergy effect of test articles on ten (10) cell lines using standard CTG assay.
b. A549, T47D, SK-OV-3, MKN45, SK-Hep-1, HT-29, Capan-1, 786-O and LNCaP cell line, for compounds and vehicle groups, the seeding density of cell lines is 3000 cells/80 µL per well. For blank groups, add 100 µL medium. For PBS groups, add 100 µL PBS.
8) Incubate the U87MG, A549, T47D, SK-OV-3, MKN45, SK-Hep-1, HT-29, Capan-1, 786-O and LNCaP cells overnight at 37° C./5% CO2.
5) Incubate the plates at 37° C./5% CO2 for 72 hours.
6) Read plates in Envision.

[12] = tested on: ovarian cancer line SK-OV3 cells;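 further: luminescent signal read after CellTiter-Glo addition, cells exposed to compounds for 72 h at 37 °C under 5% CO2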
Description: as §1, §2, §3, §4, §5, §6, §7

[13] = tested on: colorectal cancer line HT29 cells; assay: CTG (CellTiter-Glo) cell viability assay, 6×6 combo matrix, 72 h, HT29; settings: Homo sapiens, HT-29, read-out: Relatively Cell inhibition of vehicle control(%);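 further: cells exposed to compounds for 72 hours at 37 °C under 5% CO2, then viability read as luminescence after adding CellTiter-Glo Reagent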

COc1cccc2c1C(=O)c1c(O)c3c(c(O)c1C2=O)C[C@@](O)(C(=O)CO)C[C@@H]3O[C@H]1C[C@H](N)[C@H](O)[C@H](C)O1 [doxorubicin]
inhibition [1]: 7.17% | inhibition at […] ([2]; read-out: Relatively Cell inhibition of vehicle control(%), T47D, 16 nM doxorubicin only (myricetin 0)): 6.02% | inhibition at 0.08 µM ([2]; read-out: Relatively Cell inhibition of vehicle control(%), T47D, 80 nM doxorubicin only (LB-1 0)): 19.3% | inhibition at 0.08 µM ([2]; read-out: Relatively Cell inhibition of vehicle control(%), T47D, 80 nM doxorubicin only (myricetin 0)): 23% | inhibition at 0.4 µM ([2]; read-out: Relatively Cell inhibition of vehicle control(%), T47D, 400 nM doxorubicin only (LB-1 0)): 50.2% | inhibition at 0.4 µM ([2]; read-out: Relatively Cell inhibition of vehicle control(%), T47D, 400 nM doxorubicin only (myricetin 0)): 53.7% | inhibition at 2 µM ([2]; read-out: Relatively Cell inhibition of vehicle control(%), T47D, 2000 nM doxorubicin only (LB-1 0)): 51.6% | inhibition at 2 µM ([2]; read-out: Relatively Cell inhibition of vehicle control(%), T47D, 2000 nM doxorubicin only (myricetin 0)): 59% | inhibition at 10 µM ([2]; read-out: Relatively Cell inhibition of vehicle control(%), T47D, 10000 nM doxorubicin only (LB-1 0)): 45.3% | inhibition at 10 µM ([2]; read-out: Relatively Cell inhibition of vehicle control(%), T47D, 10000 nM doxorubicin only (myricetin 0)): 48.1% | inhibition [3]: 0.17% | inhibition at 0.08 µM ([4]; 72 h, read-out: Relatively Cell inhibition of vehicle control(%), U87MG, 80 nM doxorubicin only (LB-1 0), 72 h): 50% | inhibition at 0.4 µM ([4]; 72 h, read-out: Relatively Cell inhibition of vehicle control(%), U87MG, 400 nM doxorubicin only (LB-1 0), 72 h): 91.3% | inhibition at 2 µM ([4]; 72 h, read-out: Relatively Cell inhibition of vehicle control(%), U87MG, 2000 nM doxorubicin only (LB-1 0), 72 h): 72.4% | inhibition at 10 µM ([4]; 72 h, read-out: Relatively Cell inhibition of vehicle control(%), U87MG, 10000 nM doxorubicin only (LB-1 0), 72 h): 78.4% | inhibition at […] ([4]; read-out: Relatively Cell inhibition of vehicle control(%), doxorubicin 16 nM only): 27.4% | inhibition at 0.08 µM ([4]; read-out: Relatively Cell inhibition of vehicle control(%), doxorubicin 80 nM only): 52.5% | inhibition at 0.4 µM ([4]; read-out: Relatively Cell inhibition of vehicle control(%), doxorubicin 400 nM only): 93% | inhibition at 2 µM ([4]; read-out: Relatively Cell inhibition of vehicle control(%), doxorubicin 2000 nM only): 78.3% | inhibition at 10 µM ([4]; read-out: Relatively Cell inhibition of vehicle control(%), doxorubicin 10000 nM only): 80.8% | inhibition [5]: 3.98% | inhibition [6]: 4.48% | inhibition at […] ([7]; SK-HEP1, read-out: Relatively Cell inhibition of vehicle control, doxorubicin 16 nM only (myricetin table)): 6.89% | inhibition at 0.08 µM ([7]; SK-HEP1, read-out: Relatively Cell inhibition of vehicle control, doxorubicin 80 nM only (LB-1 table)): 31.3% | inhibition at 0.08 µM ([7]; SK-HEP1, read-out: Relatively Cell inhibition of vehicle control, doxorubicin 80 nM only (myricetin table)): 25.5% | inhibition at 0.4 µM ([7]; SK-HEP1, read-out: Relatively Cell inhibition of vehicle control, doxorubicin 400 nM only (LB-1 table)): 66.2% | inhibition at 0.4 µM ([7]; SK-HEP1, read-out: Relatively Cell inhibition of vehicle control, doxorubicin 400 nM only (myricetin table)): 68.5% | inhibition at 2 µM ([7]; SK-HEP1, read-out: Relatively Cell inhibition of vehicle control, doxorubicin 2000 nM only (LB-1 table)): 98.6% | inhibition at 2 µM ([7]; SK-HEP1, read-out: Relatively Cell inhibition of vehicle control, doxorubicin 2000 nM only (myricetin table)): 98.5% | inhibition at 10 µM ([7]; SK-HEP1, read-out: Relatively Cell inhibition of vehicle control, doxorubicin 10000 nM only (LB-1 table)): 99.4% | inhibition at 10 µM ([7]; SK-HEP1, read-out: Relatively Cell inhibition of vehicle control, doxorubicin 10000 nM only (myricetin table)): 99.4% | inhibition at 0.08 µM [8]: 42.2% | inhibition at 0.4 µM [8]: 61.4% | inhibition at 2 µM [8]: 95.8% | inhibition at 10 µM [8]: 94.3% | inhibition at 0.08 µM [9]: 24% | inhibition at 0.4 µM [9]: 64.9% | inhibition at 2 µM [9]: 76.2% | inhibition at 10 µM [9]: 83.8% | inhibition at […] ([10]; read-out: Relatively Cell inhibition of vehicle control(%), doxorubicin 16 nM only (myricetin plate)): 2.69% | inhibition at 0.08 µM ([10]; read-out: Relatively Cell inhibition of vehicle control(%), doxorubicin 80 nM only (LB-1 plate)): 29.9% | inhibition at 0.08 µM ([10]; read-out: Relatively Cell inhibition of vehicle control(%), doxorubicin 80 nM only (myricetin plate)): 31.7% | inhibition at 0.4 µM ([10]; read-out: Relatively Cell inhibition of vehicle control(%), doxorubicin 400 nM only (LB-1 plate)): 65.2% | inhibition at 0.4 µM ([10]; read-out: Relatively Cell inhibition of vehicle control(%), doxorubicin 400 nM only (myricetin plate)): 67.3% | inhibition at 2 µM ([10]; read-out: Relatively Cell inhibition of vehicle control(%), doxorubicin 2000 nM only (LB-1 plate)): 97.2% | inhibition at 2 µM ([10]; read-out: Relatively Cell inhibition of vehicle control(%), doxorubicin 2000 nM only (myricetin plate)): 97% | inhibition at 10 µM ([10]; read-out: Relatively Cell inhibition of vehicle control(%), doxorubicin 10000 nM only (LB-1 plate)): 87.8% | inhibition at 10 µM ([10]; read-out: Relatively Cell inhibition of vehicle control(%), doxorubicin 10000 nM only (myricetin plate)): 88.9% | inhibition at 0.08 µM [11]: 44.8% | inhibition at 0.4 µM [11]: 68% | inhibition at 2 µM [11]: 86.9% | inhibition at 10 µM [11]: 74.9% | inhibition [12]: 2.75% | inhibition at 0.08 µM [13]: 25.6% | inhibition at 0.4 µM [13]: 61.1% | inhibition at 2 µM [13]: 92.3% | inhibition at 10 µM [13]: 79.1%
